Structures are written as SMILES.

Assay [1] has as its target allosteric site of the mGluR5 receptor (Homo sapiens, UniProt P41594). The assay is described as follows: PDSP binding at the allosteric site of the mGluR5 receptor. The settings on record: binding affinity at allosteric site; type of constant not given.
Assay [2] has as its target L-type Voltage gated calcium Channel (VGCC) (Rattus norvegicus, UniProt P22002). The assay is described as follows: PDSP binding at the L-type voltage gated calcium channel. The note with it: for VGCC (IC50, nM): PDSP screening.

Chain of L-type Voltage gated calcium Channel (VGCC) (P22002 whole entry): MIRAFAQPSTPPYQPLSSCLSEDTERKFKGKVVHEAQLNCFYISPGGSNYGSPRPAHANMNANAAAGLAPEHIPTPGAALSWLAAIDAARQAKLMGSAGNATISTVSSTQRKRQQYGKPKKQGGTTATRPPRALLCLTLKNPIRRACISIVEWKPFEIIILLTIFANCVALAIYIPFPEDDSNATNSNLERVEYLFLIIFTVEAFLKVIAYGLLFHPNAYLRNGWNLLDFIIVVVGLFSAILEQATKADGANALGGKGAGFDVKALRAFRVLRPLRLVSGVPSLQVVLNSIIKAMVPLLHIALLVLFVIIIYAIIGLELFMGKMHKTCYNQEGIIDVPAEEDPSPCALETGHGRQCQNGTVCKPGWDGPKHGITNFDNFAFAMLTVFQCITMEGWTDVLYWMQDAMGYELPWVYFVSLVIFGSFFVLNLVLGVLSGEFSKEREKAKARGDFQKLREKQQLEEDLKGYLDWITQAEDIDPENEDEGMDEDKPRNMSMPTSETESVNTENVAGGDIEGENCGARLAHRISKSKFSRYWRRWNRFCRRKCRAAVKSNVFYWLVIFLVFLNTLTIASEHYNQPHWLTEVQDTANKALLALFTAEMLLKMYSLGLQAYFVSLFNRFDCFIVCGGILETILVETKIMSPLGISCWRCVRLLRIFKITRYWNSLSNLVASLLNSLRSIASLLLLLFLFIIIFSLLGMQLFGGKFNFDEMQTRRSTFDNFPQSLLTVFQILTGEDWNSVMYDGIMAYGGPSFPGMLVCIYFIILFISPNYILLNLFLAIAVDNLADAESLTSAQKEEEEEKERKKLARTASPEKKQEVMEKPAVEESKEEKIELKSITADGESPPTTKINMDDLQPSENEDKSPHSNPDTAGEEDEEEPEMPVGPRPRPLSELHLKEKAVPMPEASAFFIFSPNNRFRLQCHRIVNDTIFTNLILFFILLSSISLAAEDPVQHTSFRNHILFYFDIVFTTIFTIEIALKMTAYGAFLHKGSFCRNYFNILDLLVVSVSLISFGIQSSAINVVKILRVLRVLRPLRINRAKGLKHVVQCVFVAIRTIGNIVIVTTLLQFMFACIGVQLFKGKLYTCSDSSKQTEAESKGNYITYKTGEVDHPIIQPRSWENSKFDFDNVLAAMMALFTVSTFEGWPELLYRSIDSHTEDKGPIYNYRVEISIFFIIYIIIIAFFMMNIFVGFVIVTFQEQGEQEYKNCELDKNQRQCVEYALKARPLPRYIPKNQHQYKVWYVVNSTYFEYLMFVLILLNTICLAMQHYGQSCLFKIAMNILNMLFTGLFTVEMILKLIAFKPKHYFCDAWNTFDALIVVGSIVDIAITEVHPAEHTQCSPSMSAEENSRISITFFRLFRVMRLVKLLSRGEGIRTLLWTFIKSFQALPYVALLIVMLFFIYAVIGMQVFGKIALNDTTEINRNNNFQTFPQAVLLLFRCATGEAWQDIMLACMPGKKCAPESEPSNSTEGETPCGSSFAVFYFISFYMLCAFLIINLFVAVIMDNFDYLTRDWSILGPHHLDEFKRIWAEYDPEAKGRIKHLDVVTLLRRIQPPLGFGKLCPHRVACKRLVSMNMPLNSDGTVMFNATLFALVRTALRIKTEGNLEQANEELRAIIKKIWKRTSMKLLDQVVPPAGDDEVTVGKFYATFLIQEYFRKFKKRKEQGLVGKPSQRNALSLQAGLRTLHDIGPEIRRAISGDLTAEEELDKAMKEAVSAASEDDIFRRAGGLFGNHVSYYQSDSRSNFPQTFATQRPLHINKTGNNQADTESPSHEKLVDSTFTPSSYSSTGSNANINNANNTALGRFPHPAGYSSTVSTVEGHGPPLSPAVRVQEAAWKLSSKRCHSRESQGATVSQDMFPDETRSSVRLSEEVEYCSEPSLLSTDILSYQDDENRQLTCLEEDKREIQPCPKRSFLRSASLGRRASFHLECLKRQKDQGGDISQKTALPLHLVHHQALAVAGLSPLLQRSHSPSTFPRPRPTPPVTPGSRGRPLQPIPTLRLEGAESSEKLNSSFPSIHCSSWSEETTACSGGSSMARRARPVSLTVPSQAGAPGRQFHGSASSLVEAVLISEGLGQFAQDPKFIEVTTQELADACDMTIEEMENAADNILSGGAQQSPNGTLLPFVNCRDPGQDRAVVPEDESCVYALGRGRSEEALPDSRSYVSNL
Chain of allosteric site of the mGluR5 receptor (P41594 21-1212): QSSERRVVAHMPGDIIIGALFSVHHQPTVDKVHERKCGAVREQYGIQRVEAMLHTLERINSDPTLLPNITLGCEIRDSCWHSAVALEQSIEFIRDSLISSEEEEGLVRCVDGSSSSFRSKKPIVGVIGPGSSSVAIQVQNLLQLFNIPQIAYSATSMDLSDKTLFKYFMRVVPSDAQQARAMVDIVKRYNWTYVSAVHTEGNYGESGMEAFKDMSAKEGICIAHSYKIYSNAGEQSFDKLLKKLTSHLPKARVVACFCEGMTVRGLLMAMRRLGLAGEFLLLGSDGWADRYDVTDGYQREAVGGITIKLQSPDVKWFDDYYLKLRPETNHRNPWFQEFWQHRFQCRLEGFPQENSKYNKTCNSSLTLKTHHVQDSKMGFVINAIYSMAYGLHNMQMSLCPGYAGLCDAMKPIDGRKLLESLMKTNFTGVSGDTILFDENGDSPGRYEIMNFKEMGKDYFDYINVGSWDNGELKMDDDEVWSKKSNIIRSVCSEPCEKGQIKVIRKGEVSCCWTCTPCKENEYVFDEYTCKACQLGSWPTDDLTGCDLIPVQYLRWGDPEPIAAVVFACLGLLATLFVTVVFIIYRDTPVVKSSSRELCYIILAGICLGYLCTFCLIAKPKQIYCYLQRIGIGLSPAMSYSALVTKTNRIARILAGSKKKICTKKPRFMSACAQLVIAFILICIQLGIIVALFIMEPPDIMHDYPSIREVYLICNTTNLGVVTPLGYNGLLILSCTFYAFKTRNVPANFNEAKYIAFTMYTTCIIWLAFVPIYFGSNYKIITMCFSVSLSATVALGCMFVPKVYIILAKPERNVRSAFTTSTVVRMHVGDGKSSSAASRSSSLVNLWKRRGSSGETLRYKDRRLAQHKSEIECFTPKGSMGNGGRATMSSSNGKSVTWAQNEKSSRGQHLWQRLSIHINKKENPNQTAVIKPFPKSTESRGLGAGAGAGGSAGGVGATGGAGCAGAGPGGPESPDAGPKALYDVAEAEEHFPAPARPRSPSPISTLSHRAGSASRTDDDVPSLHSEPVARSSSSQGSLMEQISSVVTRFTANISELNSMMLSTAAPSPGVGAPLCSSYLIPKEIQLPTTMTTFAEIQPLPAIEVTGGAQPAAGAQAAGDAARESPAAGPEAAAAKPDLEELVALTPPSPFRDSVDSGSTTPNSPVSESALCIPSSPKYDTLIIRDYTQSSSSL

In the case of `CCOC(=O)C1=C(C)NC(C)=C(C(=O)OCC)C1c1c(-c2ccccc2Br)noc1C` [1b, 4-[3-(o-Bromo-phenyl)-5-methyl-isoxazol-4-yl]-2,6-dimethyl-1,4-dihydro-pyridine-3,5-dicarboxylic acid diethyl ester], the “mGluR5” value in assay [1] was 1.524 µM. Turning to `CCOC(=O)C1=C(C)NC(C)=C(C(=O)OCC)C1c1c(-c2cccc(Br)c2)noc1C` [1c, 4-[3-(m-Bromo-phenyl)-5-methyl-isoxazol-4-yl]-2,6-dimethyl-1,4-dihydro-pyridine-3,5-dicarboxylic acid diethyl ester], the “mGluR5 (nM)” value in assay [1] is given as >10,000 nM. As for `CCOC(=O)C1=C(C)NC(C)=C(C(=O)OCC)C1c1c(-c2ccc(Br)cc2)noc1C` [1d, 4-[3-(p-bromo-phenyl)-5-methyl-isoxazol-4-yl]-2,6-dimethyl-1,4-dihydro-pyridine-3,5-dicarboxylic acid diethyl ester], the “VGCC potency ratio of 1d versus o-Br 1b” value in assay [2] (fold more potent than 1b) is given as “over 25 times”. Further, the “mGluR5 (nM)” value in assay [1] is >10,000 nM. On to `CCOC(=O)C1=C(C)NC(C)=C(C(=O)OCc2cn(CCOCCOCCOCCOCCOCCn3cc(COC(=O)C4=C(C)NC(C)=C(C(=O)OCC)C4c4c(-c5ccccc5)noc4C)nn3)nn2)C1c1c(-c2ccccc2)noc1C` (stereo not shown) [4a, 3-(1-{17-[4-({[5-(Ethoxycarbonyl)-2,6-dimethyl-4-(5-methyl-3-phenyl-1,2-oxazol-4-yl)-1,4-dihydropyridin-3-yl]carbonyloxy}methyl)-1H-1,2,3-triazol-1-yl]-3,6,9,12,15-pentaoxaheptadecan-1-yl}-1H-1,2,3-triazol-4-yl)methyl 5-ethyl 2,6-dimethyl-4-(5-methyl-3-phenyl-1,2-oxazol-4-yl)-1,4-dihydropyridine-3,5-dicarboxylate], for which the “mGluR5 (nM)” value in assay [1] was >10,000 nM. With `CCOC(=O)C1=C(C)NC(C)=C(C(=O)OCc2cn(CCOCCOCCOCCOCCOCCn3cc(COC(=O)C4=C(C)NC(C)=C(C(=O)OCC)C4c4c(-c5ccccc5Br)noc4C)nn3)nn2)C1c1c(-c2ccccc2Br)noc1C` (stereo not shown) [4b, 3-[1-(17-{4-[({4-[3-(o-Bromophenyl)-5-methyl-1,2-oxazol-4-yl]-5-(ethoxycarbonyl)-2,6-dimethyl-1,4-dihydropyridin-3-yl}carbonyloxy)methyl]-1H-1,2,3-triazol-1-yl}-3,6,9,12,15-pentaoxaheptadecan-1-yl)-1H-1,2,3-triazol-4-yl]methyl 5-ethyl 4-[3-(o-bromophenyl)-5-methyl-1,2-oxazol-4-yl]-2,6-dimethyl-1,4-dihydropyridine-3,5-dicarboxylate], the “VGCC (IC50, nM)” value in assay [2] was “essentially abolished”. Besides, the “mGluR5” value in assay [1] stood at 4.858 µM.

As to `CCOC(=O)C1=C(C)NC(C)=C(C(=O)OCc2cn(CCOCCOCCOCCOCCOCCn3cc(COC(=O)C4=C(C)NC(C)=C(C(=O)OCC)C4c4c(-c5cccc(Br)c5)noc4C)nn3)nn2)C1c1c(-c2cccc(Br)c2)noc1C` (stereo not shown) [4c, 3-[1-(17-{4-[({4-[3-(m-bromophenyl)-5-methyl-1,2-oxazol-4-yl]-5-(ethoxycarbonyl)-2,6-dimethyl-1,4-dihydropyridin-3-yl}carbonyloxy)methyl]-1H-1,2,3-triazol-1-yl}-3,6,9,12,15-pentaoxaheptadecan-1-yl)-1H-1,2,3-triazol-4-yl]methyl 5-ethyl 4-[3-(m-bromophenyl)-5-methyl-1,2-oxazol-4-yl]-2,6-dimethyl-1,4-dihydropyridine-3,5-dicarboxylate], in assay [1], the “mGluR5” value was determined as 8.638 µM. On the same count and under the same terms, with `CCOC(=O)C1=C(C)NC(C)=C(C(=O)OCc2cn(CCc3ccccc3)nn2)C1c1c(-c2ccc(Br)cc2)noc1C` (stereo not shown) [compound 5, 4-[3-(p-Bromo-phenyl)-5-methyl-isoxazol-4-yl]-2,6-dimethyl-1,4-dihydro-pyridine 3,5-dicarboxylic acid 3-ethyl ester 5-(1-phenethyl-1H-[1,2,3]triazol-4-ylmethyl) ester] the figure was 1.972 µM. Turning to `CCOC(=O)c1c(C)nc(C)c(C(=O)OCC)c1-c1c(-c2ccccc2)noc1C` [compound 6, 2,6-dimethyl-4-(5-methyl-3-phenyl-isoxazol-4-yl)-pyridine-3,5-dicarboxylic acid diethyl ester], the “VGCC (IC50, nM)” value in assay [2] is on record as “essentially bereft of activity”.
